Earlier results, collected in US20190209686A1, “PULSE PHOTODYNAMIC TREATMENT OF ACNE” (GALDERMA RESEARCH & DEVELOPMENT, priority 2013, published 2019).
Read-outs that look alike come from different tables or passages of the source.

How the values were obtained:
acne [1] = details: 20%, 3 hours, 150 J/cm2 broad band light
acne [2] = details: cream 16% wt., 3 hours, non-coherent red light

| SMILES | efficacy of PDT in acne (acne [1]) | side effects after PDT (acne [1]) | side effects of PDT reported by subjects (acne [2]) | efficacy of PDT in acne (acne [2]; repeated 2 weeks later) |
| --- | --- | --- | --- | --- |
| NCC(=O)CCC(=O)O [ALA acid, 5-amino-4-oxo-pentanoic acid] | effective for the treatment of acne | erythema, hyperpigmentation and exfoliation were often seen after PDT treatment |  |  |
| COC(=O)CCC(=O)CN [methyl ALA ester, 5-ALA methyl ester] |  |  | caused pain and induced severe inflammation | effective in the treatment of acne |
